# From ChEMBL document CHEMBL1201862, “PubChem BioAssay data set” (2004)
#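 The compound was tested at five concentrations on cells cultured in 96-well plates, with a 48-hour exposure period. GI50 marks 50% less growth.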 Calls of active or inactive are those of the source. Cut-off read from the data, not from the text of the source: active = GI50 up to about 1.1 µM and inactive = higher.
# What was measured:
# Experiment in all cases: NCI tumour cell line growth inhibition, 48 h
# [1] = system: Hs-578T
# [2] = system: NCI/ADR-RES
# [3] = system: HCT-15
# [4] = system: LOX IMVI
# [5] = system: SK-MEL-28
# [6] = system: K562
# [7] = system: MOLT-4
# [8] = system: EKVX
# [9] = system: UO-31
# [10] = system: BT-549
# [11] = system: SN12C
# [12] = system: OVCAR-5
# [13] = system: PC-3
# [14] = system: TK-10
# [15] = system: SF-268
# [16] = system: NCI-H460
# [17] = system: A498
# [18] = system: RXF 393
# [19] = system: OVCAR-8
# [20] = system: IGROV-1
# [21] = system: SK-MEL-5
# [22] = system: MCF7
# [23] = system: SNB-19
# [24] = system: ACHN
# [25] = system: SW-620
# [26] = system: CCRF-CEM
# [27] = system: NCI-H23
# [28] = system: SNB-75
# [29] = system: HCC 2998
# [30] = system: HT-29
# [31] = system: U-251
# [32] = system: SK-OV-3
# [33] = system: UACC-62
# [34] = system: MDA-MB-231
# [35] = system: 786-0
# [36] = system: Malme-3M
# [37] = system: HCT-116
# [38] = system: NCI-H522
# [39] = system: MDA-N
# [40] = system: OVCAR-3
# [41] = system: T47D
# [42] = system: COLO 205
# [43] = system: HOP-92
# [44] = system: CAKI-1
# [45] = system: SK-MEL-2
# [46] = system: KM12
# [47] = system: SF-295
# [48] = system: SR
# [49] = system: DU-145
# [50] = system: A549
# [51] = system: UACC-257
# [52] = system: HL-60
# [53] = system: RPMI-8226
# [54] = system: HOP-62
# [55] = system: SF-539
# [56] = system: M14
# [57] = system: NCI-H226
smiles,measurement,setting,value
Clc1ccc2sc(-n3ccc4ccccc43)nc2c1,GI50,[1],72.6 µM (inactive)
same,GI50,[2],> 100 µM (inactive)
same,GI50,[3],> 100 µM
same,GI50,[4],> 100 µM (inactive)
same,GI50,[5],> 100 µM (inactive)
same,GI50,[6],97.1 µM (inactive)
same,GI50,[7],55.7 µM (inactive)
same,GI50,[8],> 100 µM (inactive)
same,GI50,[9],> 100 µM (inactive)
same,GI50,[10],84.3 µM (inactive)
same,GI50,[11],> 100 µM (inactive)
same,GI50,[12],> 100 µM (inactive)
same,GI50,[13],67.6 µM (inactive)
same,GI50,[14],> 100 µM (inactive)
same,GI50,[15],> 100 µM (inactive)
same,GI50,[16],> 100 µM (inactive)
same,GI50,[17],> 100 µM (inactive)
same,GI50,[18],13.3 µM (inactive)
same,GI50,[19],> 100 µM (inactive)
same,GI50,[20],> 100 µM (inactive)
same,GI50,[21],> 100 µM (inactive)
same,GI50,[22],26.1 µM (inactive)
same,GI50,[23],24.2 µM (inactive)
same,GI50,[24],> 100 µM (inactive)
same,GI50,[25],> 100 µM (inactive)
same,GI50,[26],> 100 µM (inactive)
same,GI50,[27],45.7 µM (inactive)
same,GI50,[28],49.3 µM (inactive)
same,GI50,[29],> 100 µM (inactive)
same,GI50,[30],75.9 µM (inactive)
same,GI50,[31],> 100 µM (inactive)
same,GI50,[32],> 100 µM (inactive)
same,GI50,[33],> 100 µM (inactive)
O=C1CSC(=S)N1 [RHODANINE],GI50,[34],> 100 µM (inactive)
same,GI50,[35],> 100 µM (inactive)
same,GI50,[1],> 100 µM (inactive)
same,GI50,[2],> 100 µM (inactive)
same,GI50,[3],> 100 µM
same,GI50,[36],> 100 µM (inactive)
same,GI50,[37],> 100 µM (inactive)
same,GI50,[4],> 100 µM (inactive)
same,GI50,[38],> 100 µM (inactive)
same,GI50,[5],> 100 µM (inactive)
same,GI50,[6],> 100 µM (inactive)
same,GI50,[7],> 100 µM (inactive)
same,GI50,[39],> 100 µM (inactive)
same,GI50,[8],> 100 µM (inactive)
same,GI50,[40],> 100 µM (inactive)
same,GI50,[41],> 100 µM (inactive)
same,GI50,[9],> 100 µM (inactive)
same,GI50,[42],> 100 µM (inactive)
same,GI50,[11],> 100 µM (inactive)
same,GI50,[43],> 100 µM (inactive)
same,GI50,[44],> 100 µM (inactive)
same,GI50,[12],> 100 µM (inactive)
same,GI50,[13],> 100 µM (inactive)
same,GI50,[14],> 100 µM (inactive)
same,GI50,[15],> 100 µM (inactive)
same,GI50,[45],> 100 µM (inactive)
same,GI50,[46],> 100 µM (inactive)
same,GI50,[16],> 100 µM (inactive)
same,GI50,[47],> 100 µM (inactive)
same,GI50,[48],> 100 µM (inactive)
same,GI50,[19],> 100 µM (inactive)
same,GI50,[20],> 100 µM (inactive)
same,GI50,[49],> 100 µM (inactive)
same,GI50,[50],> 100 µM (inactive)
same,GI50,[21],> 100 µM (inactive)
same,GI50,[51],> 100 µM (inactive)
same,GI50,[52],> 100 µM (inactive)
same,GI50,[22],> 100 µM (inactive)
same,GI50,[53],> 100 µM (inactive)
same,GI50,[23],> 100 µM (inactive)
same,GI50,[24],> 100 µM (inactive)
same,GI50,[54],> 100 µM (inactive)
same,GI50,[25],> 100 µM (inactive)
same,GI50,[26],> 100 µM (inactive)
same,GI50,[27],> 100 µM (inactive)
same,GI50,[28],> 100 µM (inactive)
same,GI50,[55],> 100 µM (inactive)
same,GI50,[29],> 100 µM (inactive)
same,GI50,[31],> 100 µM (inactive)
same,GI50,[56],> 100 µM (inactive)
same,GI50,[57],> 100 µM (inactive)
